Data published in patent publication US5091191A (Yoshitomi Pharmaceutical Industries, Ltd., priority 1988, dated 1992).

Columns and labels:
[1] = Behaviour of finely-powdered Compound in weakly acid solution; format: physicochemical
[2] = Solubility of the Compound at different pH values (FIG. 1); format: physicochemical; conditions: weakly acid to neutral, about pH 3 to about pH 7
From the text: FIG. 1 is a graph showing the solubility of the Compound at different ph valves. FIGS. 2, 3 and 4 are the graphs showing the dissolution test results of the Compound and the tablets of Reference Example 1, the fine granules of Example 1 and the tablets of Example 2, respectively.

Cc1ccc(-n2ccnc2)cc1C(O)c1c(C)cc(C(=O)[O-])cc1C.[Na+] (stereo not drawn)
conversion to corresponding free acid ([1]; added to a weakly acid solution): the corresponding free acid was produced through chemical reaction
dissolution-improving effect of finely-powdering ([1]; weakly acid solution): there was not found any dissolution-improving effect
solubility [2]: lowered under weakly acid to neutral conditions
